Blank lines part the entries; values can stand above or below the compound they belong to. Active and inactive are the calls of the source. No cut-off for these calls is given here.
How the values were obtained:
D-amino-acid oxidase [1] = target: D-amino-acid oxidase (Mus musculus, UniProt P18894); test: Inhibition of full length mouse DAO transfected with CHO-K1 cells incubated for 30 mins by Amplex red and horseradish peroxidase based fluorescence assay; assay type: cell-based
[2] = target: T1, Prostaglandin G/H synthase 2 (Homo sapiens, UniProt P35354); test: Inhibition of human COX2
T1 sequence (P35354 whole entry): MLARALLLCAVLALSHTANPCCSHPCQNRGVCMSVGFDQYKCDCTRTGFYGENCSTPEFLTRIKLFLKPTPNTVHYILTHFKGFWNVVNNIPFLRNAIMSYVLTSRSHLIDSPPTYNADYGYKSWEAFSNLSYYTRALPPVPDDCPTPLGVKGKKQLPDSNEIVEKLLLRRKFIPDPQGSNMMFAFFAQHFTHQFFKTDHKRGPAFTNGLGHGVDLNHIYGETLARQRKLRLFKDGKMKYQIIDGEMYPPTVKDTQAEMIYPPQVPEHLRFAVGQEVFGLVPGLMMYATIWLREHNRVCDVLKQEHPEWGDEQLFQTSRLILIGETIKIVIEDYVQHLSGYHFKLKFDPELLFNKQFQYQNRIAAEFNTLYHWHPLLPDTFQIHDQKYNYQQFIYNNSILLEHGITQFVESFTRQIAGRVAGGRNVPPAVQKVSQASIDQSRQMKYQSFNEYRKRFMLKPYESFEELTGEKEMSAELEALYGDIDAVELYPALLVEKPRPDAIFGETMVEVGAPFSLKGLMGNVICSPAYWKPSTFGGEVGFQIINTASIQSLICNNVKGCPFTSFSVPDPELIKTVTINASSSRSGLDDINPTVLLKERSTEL

[3] = target: T2, Polyunsaturated fatty acid 5-lipoxygenase (Homo sapiens, UniProt P09917); test: Inhibition of human recombinant 5-LOX incubated for 5 mins by fluorimetry
T2 sequence (P09917 whole entry): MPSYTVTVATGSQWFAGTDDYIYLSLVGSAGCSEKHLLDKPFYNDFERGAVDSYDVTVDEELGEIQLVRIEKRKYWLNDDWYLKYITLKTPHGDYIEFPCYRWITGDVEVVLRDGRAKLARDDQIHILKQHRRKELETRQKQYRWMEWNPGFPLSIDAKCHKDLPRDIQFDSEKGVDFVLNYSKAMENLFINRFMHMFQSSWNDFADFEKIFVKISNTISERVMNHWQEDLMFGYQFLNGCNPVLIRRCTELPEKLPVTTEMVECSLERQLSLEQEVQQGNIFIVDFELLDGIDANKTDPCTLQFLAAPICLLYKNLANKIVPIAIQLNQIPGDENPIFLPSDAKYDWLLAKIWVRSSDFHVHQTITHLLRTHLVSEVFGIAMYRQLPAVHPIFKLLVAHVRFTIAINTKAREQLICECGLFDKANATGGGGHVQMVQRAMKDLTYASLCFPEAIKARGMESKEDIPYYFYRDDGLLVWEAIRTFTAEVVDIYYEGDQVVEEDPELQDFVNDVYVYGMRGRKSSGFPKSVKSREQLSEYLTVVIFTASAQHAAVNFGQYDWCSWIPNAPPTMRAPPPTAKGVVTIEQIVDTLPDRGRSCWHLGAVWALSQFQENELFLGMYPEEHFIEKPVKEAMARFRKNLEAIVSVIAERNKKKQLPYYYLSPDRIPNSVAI

Adenosine receptor A3 = target: T3, Adenosine receptor A3 (Homo sapiens, UniProt P0DMS8); test: Inhibition of recombinant human adenosine A3 GPCR incubated for 120 mins by scintillation counting based radiometry assay
T3 sequence (P0DMS8 whole entry): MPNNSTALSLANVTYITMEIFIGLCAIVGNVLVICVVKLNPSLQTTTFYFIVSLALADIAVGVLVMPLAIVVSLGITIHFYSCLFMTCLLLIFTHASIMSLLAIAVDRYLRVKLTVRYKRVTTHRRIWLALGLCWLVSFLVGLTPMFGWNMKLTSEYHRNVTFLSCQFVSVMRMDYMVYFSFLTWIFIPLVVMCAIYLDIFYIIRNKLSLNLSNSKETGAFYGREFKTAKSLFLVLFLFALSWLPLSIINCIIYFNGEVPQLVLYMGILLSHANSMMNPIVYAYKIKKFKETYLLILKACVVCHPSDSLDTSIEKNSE

Glucocorticoid receptor = target: T4, Glucocorticoid receptor (Homo sapiens, UniProt P04150); test: Inhibition of GR human glucocorticoid NHR incubated for 360 mins by scintillation counting based radiometry assay
T4 sequence (P04150 whole entry): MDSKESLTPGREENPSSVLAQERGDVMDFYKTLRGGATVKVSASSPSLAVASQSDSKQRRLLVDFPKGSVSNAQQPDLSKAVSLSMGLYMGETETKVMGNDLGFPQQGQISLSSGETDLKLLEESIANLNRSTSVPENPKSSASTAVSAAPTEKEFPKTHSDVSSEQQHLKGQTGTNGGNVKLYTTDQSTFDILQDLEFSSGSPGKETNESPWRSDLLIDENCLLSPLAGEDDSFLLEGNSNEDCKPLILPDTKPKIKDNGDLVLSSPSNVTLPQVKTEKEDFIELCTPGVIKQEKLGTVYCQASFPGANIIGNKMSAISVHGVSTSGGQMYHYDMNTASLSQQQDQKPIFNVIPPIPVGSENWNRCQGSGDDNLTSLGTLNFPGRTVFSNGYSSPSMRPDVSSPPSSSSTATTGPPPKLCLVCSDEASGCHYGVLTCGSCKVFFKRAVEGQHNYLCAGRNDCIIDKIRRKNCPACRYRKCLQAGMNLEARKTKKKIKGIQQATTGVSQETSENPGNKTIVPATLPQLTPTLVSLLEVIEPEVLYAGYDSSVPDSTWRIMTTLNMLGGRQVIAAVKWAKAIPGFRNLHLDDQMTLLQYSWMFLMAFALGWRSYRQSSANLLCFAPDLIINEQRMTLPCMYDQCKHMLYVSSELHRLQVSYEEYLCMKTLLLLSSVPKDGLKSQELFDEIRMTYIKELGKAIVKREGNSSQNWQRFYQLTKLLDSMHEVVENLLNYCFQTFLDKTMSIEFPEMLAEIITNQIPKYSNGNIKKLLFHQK

[4] = target: T5, Peroxisome proliferator-activated receptor gamma (Homo sapiens, UniProt P37231); test: Inhibition of recombinant human PPAR gamma NHR incubated for 120 mins by scintillation counting based radiometry assay
T5 sequence (P37231 whole entry): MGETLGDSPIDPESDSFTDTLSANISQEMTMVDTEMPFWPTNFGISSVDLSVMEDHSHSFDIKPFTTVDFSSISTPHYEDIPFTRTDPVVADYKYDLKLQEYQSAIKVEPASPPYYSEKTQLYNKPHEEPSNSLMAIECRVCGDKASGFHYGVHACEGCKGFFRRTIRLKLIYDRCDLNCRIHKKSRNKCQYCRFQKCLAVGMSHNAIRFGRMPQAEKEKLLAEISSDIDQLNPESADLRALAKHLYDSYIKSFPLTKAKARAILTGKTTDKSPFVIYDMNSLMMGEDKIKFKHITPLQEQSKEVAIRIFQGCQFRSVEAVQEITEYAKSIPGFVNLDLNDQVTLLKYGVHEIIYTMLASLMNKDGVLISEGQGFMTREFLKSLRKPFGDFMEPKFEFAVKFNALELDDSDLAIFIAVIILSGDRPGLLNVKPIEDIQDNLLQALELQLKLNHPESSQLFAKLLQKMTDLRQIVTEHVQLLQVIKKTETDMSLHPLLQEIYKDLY

Mus musculus [5] = test: Effect of compound in C57BL/6 mouse catalepsy model assessed as no catalepsy at 150 mg/kg, po bid administered for every 4 hrs; assay type: functional, organism-based
[6] = In vivo receptor occupancy at DAO in C57BL/6 mouse cerebellum at 150 mg/kg, po measured after 4 hrs relative to control; assay type: functional
[7] = In vivo receptor occupancy at DAO in C57BL/6 mouse cerebellum at 150 mg/kg, po measured after 6 hrs relative to control; assay type: functional
[8] = In vivo receptor occupancy at DAO in C57BL/6 mouse cerebellum at 150 mg/kg, po measured after 10 hrs relative to control; assay type: functional
Mus musculus [9] = test: Effect of compound in C57BL/6 mouse catalepsy model assessed as decrease in plasma prolactin level at 150 mg/kg, po bid administered for every 4 hrs; assay type: functional, organism-based
[10] = Unbound drug concentration in C57Bl/6 mouse brain at 2 mg/kg, po or 0.5 mg/kg,iv by LC-MS-MS analysis; assay type: ADME, organism-based; conditions: C57Bl/6, mouse, brain
D-amino-acid oxidase [11] = target: D-amino-acid oxidase (Homo sapiens, UniProt P14920); test: Inhibition of recombinant full length human DAO preincubated with compound for 20 mins measured after 4 hrs by Amplex red and horseradish peroxidase based fluorescence assay
Chain of D-amino-acid oxidase (Homo sapiens, UniProt P14920) (P14920 whole entry): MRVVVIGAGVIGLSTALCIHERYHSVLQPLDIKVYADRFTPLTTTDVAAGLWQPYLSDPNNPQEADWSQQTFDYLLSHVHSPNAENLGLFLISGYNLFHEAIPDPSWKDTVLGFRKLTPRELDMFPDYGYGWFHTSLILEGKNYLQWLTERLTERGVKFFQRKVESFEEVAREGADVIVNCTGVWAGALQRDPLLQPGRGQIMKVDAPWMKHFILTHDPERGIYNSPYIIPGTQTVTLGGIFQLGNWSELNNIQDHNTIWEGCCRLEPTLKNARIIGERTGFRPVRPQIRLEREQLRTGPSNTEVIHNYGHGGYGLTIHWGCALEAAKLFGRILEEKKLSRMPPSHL

[12] = Apparent permeability across apical to basolateral membrane in MDCK-MDR1 cells by LC-MS/MS analysis; conditions: dog
[13] = Efflux ratio of apparent permeability across basolateral to apical side over apical to basolateral side in MDCK-MDR1 cells; conditions: dog
[14] = Volume of distribution at steady state in C57/BL6 mouse at 2 mg/kg, po or 0.5 mg/kg,iv by LC-MS-MS analysis; assay type: ADME, organism-based; conditions: in vivo
[15] = Half life in C57/BL6 mouse at 0.5 mg/kg,iv by LC-MS-MS analysis; assay type: ADME, organism-based; conditions: in vivo
[16] = Dose normalized AUC in C57/BL6 mouse at 2 mg/kg, po by LC-MS-MS analysis; assay type: ADME, organism-based; conditions: in vivo
[17] = Oral bioavailability in C57/BL6 mouse at 2 mg/kg by LC-MS-MS analysis; assay type: ADME, organism-based; conditions: in vivo
[18] = Brain to plasma permeability coefficient, Kp in C57Bl/6 mouse 2 mg/kg, po or 0.5 mg/kg,iv by LC-MS-MS analysis; assay type: ADME, organism-based; conditions: C57Bl/6, mouse, brain and plasma, read-out: Kp
[19] = Unbound drug concentration in C57Bl/6 mouse plasma at 2 mg/kg, po or 0.5 mg/kg,iv by LC-MS-MS analysis; assay type: ADME, organism-based; conditions: C57Bl/6, mouse, plasma
[20] = Unbound brain-to-plasma concentration ratio in C57Bl/6 mouse at 2 mg/kg, po or 0.5 mg/kg,iv by LC-MS-MS analysis; assay type: ADME, organism-based; conditions: C57Bl/6, mouse, brain and plasma, read-out: K(p,uu,brain)

Chain of D-amino-acid oxidase (Mus musculus, UniProt P18894) (P18894 whole entry): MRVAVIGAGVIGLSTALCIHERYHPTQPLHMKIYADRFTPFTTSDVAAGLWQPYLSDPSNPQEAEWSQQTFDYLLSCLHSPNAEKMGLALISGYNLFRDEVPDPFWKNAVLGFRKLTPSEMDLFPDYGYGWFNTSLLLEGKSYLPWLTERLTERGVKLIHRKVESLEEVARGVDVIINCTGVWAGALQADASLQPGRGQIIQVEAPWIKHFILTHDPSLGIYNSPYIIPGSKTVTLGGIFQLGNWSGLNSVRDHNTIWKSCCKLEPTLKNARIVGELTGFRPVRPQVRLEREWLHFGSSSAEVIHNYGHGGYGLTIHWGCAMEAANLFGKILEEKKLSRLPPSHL

EC50 (D-amino-acid oxidase [1]): 0.62 µM | IC50 [2]: > 10 µM | IC50 [3]: > 10 µM | IC50 (Adenosine receptor A3): > 10 µM | IC50 (Glucocorticoid receptor): > 10 µM | IC50 [4]: > 10 µM
SMILES: O=c1[nH]cc(CSc2ccc(C(F)F)cc2)[nH]c1=O

EC50 (D-amino-acid oxidase [1]): 0.51 µM | IC50 [2]: > 10 µM | IC50 [3]: > 10 µM | IC50 (Adenosine receptor A3): > 10 µM | IC50 (Glucocorticoid receptor): > 10 µM | IC50 [4]: > 10 µM
SMILES: O=c1[nH]cc(CSc2ccc(C(F)(F)F)cc2)[nH]c1=O
Activity (Mus musculus [5]): Active | Activity [6]: 75% | Activity [7]: 86% | Activity [8]: 59% | Activity (Mus musculus [9]): Active

fraction unbound [10]: 0.26 | IC50 (D-amino-acid oxidase [11]): 0.12 µM | Papp A→B [12]: 8.8 ×10⁻⁶ cm/s | efflux ratio [13]: 0.8 | Vdss [14]: 0.2 L/kg | half-life [15]: 1.2 h | AUC/dose [16]: 6266 ng·h/mL | bioavailability [17]: 34% | Kp [18]: 0.004 | fraction unbound [19]: 0.22 | Kp uu [20]: 0.005
SMILES: O=c1[nH]c2ccsc2[nH]c1=O
